Assay [1] deals with T1, Aurora kinase A (Homo sapiens) (UniProt O14965).
T1 sequence (whole entry): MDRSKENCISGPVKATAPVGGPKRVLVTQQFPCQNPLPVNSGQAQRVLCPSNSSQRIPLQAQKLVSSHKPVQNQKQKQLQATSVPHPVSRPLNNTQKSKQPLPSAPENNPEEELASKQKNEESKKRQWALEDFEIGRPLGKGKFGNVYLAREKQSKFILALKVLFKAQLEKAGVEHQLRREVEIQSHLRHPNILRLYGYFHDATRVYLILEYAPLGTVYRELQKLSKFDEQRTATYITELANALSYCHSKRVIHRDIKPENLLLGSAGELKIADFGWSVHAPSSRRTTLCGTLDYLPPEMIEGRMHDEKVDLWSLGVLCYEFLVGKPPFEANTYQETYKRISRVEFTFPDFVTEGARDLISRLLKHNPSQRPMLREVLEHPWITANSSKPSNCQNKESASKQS
In words: Selectivity interaction (Kinase panel (KiNativ target engagement assay in Jurkat cells)) EUB0001635a STK6. The assay is classed as cell-based. The note with it: at 1 µM.

The target in assay [2] is T2, Hormonally up-regulated neu tumor-associated kinase (Homo sapiens) (UniProt P57058).
T2 sequence (whole entry): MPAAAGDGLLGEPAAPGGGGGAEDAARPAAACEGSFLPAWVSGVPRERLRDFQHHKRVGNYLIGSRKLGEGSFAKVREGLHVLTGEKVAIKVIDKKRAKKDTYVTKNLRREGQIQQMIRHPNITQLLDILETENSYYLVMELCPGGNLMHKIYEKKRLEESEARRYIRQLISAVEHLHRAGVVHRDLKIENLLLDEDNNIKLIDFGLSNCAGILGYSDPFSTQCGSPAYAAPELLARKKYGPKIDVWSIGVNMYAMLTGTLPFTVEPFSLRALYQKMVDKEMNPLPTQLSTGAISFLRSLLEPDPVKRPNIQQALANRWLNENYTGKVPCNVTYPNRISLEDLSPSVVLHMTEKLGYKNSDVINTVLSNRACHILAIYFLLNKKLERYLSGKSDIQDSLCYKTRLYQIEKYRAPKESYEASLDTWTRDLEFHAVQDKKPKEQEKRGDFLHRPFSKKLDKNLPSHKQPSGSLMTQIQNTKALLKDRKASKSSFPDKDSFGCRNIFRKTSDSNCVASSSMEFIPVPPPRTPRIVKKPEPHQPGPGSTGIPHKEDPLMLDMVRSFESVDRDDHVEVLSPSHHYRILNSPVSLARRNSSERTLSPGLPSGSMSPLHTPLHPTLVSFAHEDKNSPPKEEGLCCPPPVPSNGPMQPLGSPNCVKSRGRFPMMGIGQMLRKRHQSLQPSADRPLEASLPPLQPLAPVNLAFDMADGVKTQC
In words: Selectivity interaction (KinomeScan (DiscoverX)) EUB0000229b HUNK. Conditions: at 10 µM.

For assay [3], the target named is T3, Serine/threonine-protein kinase RIO1 (Homo sapiens) (UniProt Q9BRS2).
T3 sequence (whole entry): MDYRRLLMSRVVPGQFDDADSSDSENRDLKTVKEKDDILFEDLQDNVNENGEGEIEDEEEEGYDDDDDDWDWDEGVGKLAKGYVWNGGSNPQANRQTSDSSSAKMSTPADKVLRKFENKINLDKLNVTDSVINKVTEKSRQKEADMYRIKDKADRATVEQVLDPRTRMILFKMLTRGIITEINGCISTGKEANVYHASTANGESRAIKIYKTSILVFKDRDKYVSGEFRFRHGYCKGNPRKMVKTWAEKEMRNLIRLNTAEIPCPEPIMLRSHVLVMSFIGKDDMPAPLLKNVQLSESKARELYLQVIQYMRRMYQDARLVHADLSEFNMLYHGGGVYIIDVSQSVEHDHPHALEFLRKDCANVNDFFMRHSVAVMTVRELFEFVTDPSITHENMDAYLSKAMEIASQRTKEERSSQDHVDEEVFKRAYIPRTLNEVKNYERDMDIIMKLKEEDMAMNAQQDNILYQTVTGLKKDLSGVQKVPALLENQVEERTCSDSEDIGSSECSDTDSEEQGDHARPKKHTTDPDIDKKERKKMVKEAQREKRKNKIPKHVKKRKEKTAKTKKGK
Nature of the assay: Selectivity interaction (KinomeScan (DiscoverX)) EUB0000229b RIOK1. Conditions: at 10 µM.

In assay [4] the target is 5'-AMP-activated protein kinase catalytic subunit alpha-1 (Homo sapiens, UniProt Q13131). In words: Selectivity interaction (ActivX KiNativ screen (ex vivo kinase selectivity in human PBMCs)) EUB0001619a PRKAA1. The assay is classed as cell-based. Conditions: PBMC, at 1 µM.
5'-AMP-activated protein kinase catalytic subunit alpha-1, sequence (Q13131 whole entry, looked up): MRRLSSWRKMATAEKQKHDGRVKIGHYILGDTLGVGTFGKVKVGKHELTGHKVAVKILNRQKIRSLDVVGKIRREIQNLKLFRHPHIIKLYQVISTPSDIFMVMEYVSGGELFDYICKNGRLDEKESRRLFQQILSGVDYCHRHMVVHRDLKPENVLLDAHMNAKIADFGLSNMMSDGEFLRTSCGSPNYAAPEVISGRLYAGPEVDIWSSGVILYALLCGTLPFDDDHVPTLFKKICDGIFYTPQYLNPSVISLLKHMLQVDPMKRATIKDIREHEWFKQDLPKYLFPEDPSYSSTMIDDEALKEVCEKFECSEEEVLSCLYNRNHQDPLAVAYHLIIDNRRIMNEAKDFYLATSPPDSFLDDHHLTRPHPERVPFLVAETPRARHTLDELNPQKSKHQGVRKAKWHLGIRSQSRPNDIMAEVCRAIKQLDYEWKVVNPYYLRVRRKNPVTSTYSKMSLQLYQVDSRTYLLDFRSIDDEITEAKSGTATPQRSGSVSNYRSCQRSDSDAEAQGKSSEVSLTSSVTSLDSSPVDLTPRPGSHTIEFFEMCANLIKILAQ
Assay [5] relates to Receptor-type tyrosine-protein kinase FLT3 (Homo sapiens), P36888 [UNDEFINED MUTATION]. In words: Selectivity interaction (KinomeScan (DiscoverX)) EUB0000695a FLT3. Conditions: at 100 nM.
Receptor-type tyrosine-protein kinase FLT3 (Homo sapiens), P36888 [UNDEFINED MUTATION], sequence (P36888 whole entry, looked up, change not shown): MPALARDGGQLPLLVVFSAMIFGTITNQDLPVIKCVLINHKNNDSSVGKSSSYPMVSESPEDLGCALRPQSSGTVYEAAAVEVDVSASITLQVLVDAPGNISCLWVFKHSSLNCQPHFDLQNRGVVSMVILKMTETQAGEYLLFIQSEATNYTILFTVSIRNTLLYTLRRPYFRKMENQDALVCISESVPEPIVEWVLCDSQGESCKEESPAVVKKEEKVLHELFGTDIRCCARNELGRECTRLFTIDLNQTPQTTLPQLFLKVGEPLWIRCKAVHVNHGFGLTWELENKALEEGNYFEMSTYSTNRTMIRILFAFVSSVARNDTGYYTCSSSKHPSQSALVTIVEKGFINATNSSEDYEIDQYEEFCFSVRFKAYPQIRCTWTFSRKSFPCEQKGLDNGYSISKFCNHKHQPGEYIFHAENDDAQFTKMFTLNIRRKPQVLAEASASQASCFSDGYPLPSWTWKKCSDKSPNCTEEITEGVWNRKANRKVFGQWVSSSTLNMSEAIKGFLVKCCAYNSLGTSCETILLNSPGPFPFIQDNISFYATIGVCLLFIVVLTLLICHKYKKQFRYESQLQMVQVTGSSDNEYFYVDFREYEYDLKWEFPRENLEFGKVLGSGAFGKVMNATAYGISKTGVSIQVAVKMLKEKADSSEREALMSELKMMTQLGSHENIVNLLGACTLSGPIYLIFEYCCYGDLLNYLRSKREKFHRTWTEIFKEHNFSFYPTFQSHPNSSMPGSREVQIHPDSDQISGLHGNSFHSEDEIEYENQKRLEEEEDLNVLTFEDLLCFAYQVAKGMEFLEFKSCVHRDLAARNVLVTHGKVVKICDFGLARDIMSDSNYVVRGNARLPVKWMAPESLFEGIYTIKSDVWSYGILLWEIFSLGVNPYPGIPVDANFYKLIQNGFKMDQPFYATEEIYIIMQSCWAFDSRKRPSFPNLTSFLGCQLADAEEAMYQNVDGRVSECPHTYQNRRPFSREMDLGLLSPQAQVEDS

In the case of `C=CC(=O)Nc1ccc(C(=O)Nc2[nH]nc3c2CN(C(=O)N[C@H](CN(C)C)c2ccccc2)C3(C)C)cc1`, the % of engagement in assay [1] (Selectivity number of off-targets 0.0, Selectivity number of targets 233.0, Source Knowledge https://www.sciencedirect.com/science/article/pii/S2451945619300674?via%3Dihub) amounted to 22.4%; in assay [1], 26%.
On to `COc1cc(N(C)c2ccnc3ccc(C(F)(F)F)cc23)cc(OC)c1OC`, for which the % binding was found to be 93% in assay [2] and 95% in assay [3].
`N#Cc1cccc(-c2c[nH]c3ncnc(N4CCOCC4)c23)c1` gave a % of inhibition in assay [4] of 16%.
Take `Cc1cc(F)c(C(=O)Nc2cccc(-c3nncn3C(C)C)n2)cc1-n1cnc(C2CC2)c1`: the % of control in assay [5] turned out to be 100%.

The values are drawn from ChEMBL document CHEMBL5465560, “Selectivity Literature for EUbOPEN Chemogenomic Library” (2024).
